Source: patent publication US20230278972A1, “SUBSTITUTED HALOALKYL SULFONANILIDE HERBICIDES” (FMC Corporation, priority 2020, published 2023)

Experiments:
Assay type in all cases: in vivo
[1] = system: barnyardgrass (Echinochloa crus-galli); experiment: Test A preemergence, barnyardgrass; settings: Preemergence; for Plant response rating, Barnyardgrass: 0 to 100 scale (0 no effect, 100 complete control); for Barnyardgrass plant response rating: 125 g ai/ha, visual injury on 0 to 100 scale (0 no effect, 100 complete control), approximately 10 days
Method in brief: (§1)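 Greenhouse pot test in a loam–sand blend; compounds delivered in a non-phytotoxic solvent carrying a surfactant, applied either as a directed spray to soil at seeding or over seedlings 2 to 10 cm high with one to two leaves.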

[2] = system: pigweed (Amaranthus retroflexus); experiment: Test A postemergence, pigweed; settings: Postemergence; for Pigweed plant response rating: 500 g ai/ha, visual injury vs untreated controls after approx. 10 days
Method in brief: as §1

corn (Zea mays) = experiment: Test A postemergence, corn; settings: Postemergence; for Corn plant response rating: 500 g ai/ha, visual injury vs untreated controls after approx. 10 days
Method in brief: as §1

[3] = system: Ryegrass, Italian (Italian ryegrass, Lolium multiflorum); experiment: Test A postemergence, Ryegrass, Italian; settings: Postemergence; for Ryegrass, Italian plant response rating: 500 g ai/ha, visual injury vs untreated controls after approx. 10 days
Method in brief: as §1

[4] = system: pigweed (Amaranthus retroflexus); experiment: Test A preemergence, pigweed; settings: for Plant response rating, Pigweed: 0 to 100 scale (0 no effect, 100 complete control); for Pigweed plant response rating: 125 g ai/ha, visual injury on 0 to 100 scale (0 no effect, 100 complete control), approximately 10 days
Method in brief: as §1

[5] = system: ragweed (common ragweed, Ambrosia artemisiifolia); experiment: Test A preemergence, ragweed; settings: Preemergence; for Plant response rating, Ragweed: 0 to 100 scale (0 no effect, 100 complete control); for Ragweed plant response rating: 125 g ai/ha, visual injury on 0 to 100 scale (0 no effect, 100 complete control), approximately 10 days
Method in brief: as §1

[6] = system: barnyardgrass (Echinochloa crus-galli); experiment: Test A postemergence, barnyardgrass; settings: Postemergence; for Barnyardgrass plant response rating: 500 g ai/ha, visual injury vs untreated controls after approx. 10 days
Method in brief: as §1

[7] = system: ragweed (common ragweed, Ambrosia artemisiifolia); experiment: Test A postemergence, ragweed; settings: Postemergence; for Ragweed plant response rating: 500 g ai/ha, visual injury vs untreated controls after approx. 10 days
Method in brief: as §1

[8] = system: galium (catchweed bedstraw, Galium aparine); experiment: Test A postemergence, galium; settings: Postemergence; for Galium plant response rating: 500 g ai/ha, visual injury vs untreated controls after approx. 10 days
Method in brief: as §1

kochia (Bassia scoparia) [9] = experiment: Test A postemergence, kochia; settings: Postemergence; for Kochia plant response rating: 500 g ai/ha, visual injury vs untreated controls after approx. 10 days
Method in brief: as §1

[10] = system: blackgrass (Alopecurus myosuroides); experiment: Test A postemergence, blackgrass; settings: Postemergence; for Blackgrass plant response rating: 500 g ai/ha, visual injury vs untreated controls after approx. 10 days
Method in brief: as §1

[11] = system: Foxtail, Giant (giant foxtail, Setaria faberi); experiment: Test A postemergence, Foxtail, Giant; settings: Postemergence; for Foxtail, Giant plant response rating: 500 g ai/ha, visual injury vs untreated controls after approx. 10 days
Method in brief: as §1

kochia (Bassia scoparia) [12] = experiment: Test A preemergence, kochia; settings: Preemergence; for Plant response rating, Kochia: 0 to 100 scale (0 no effect, 100 complete control); for Kochia plant response rating: 125 g ai/ha, visual injury on 0 to 100 scale (0 no effect, 100 complete control), approximately 10 days
Method in brief: as §1

[13] = system: Ryegrass, Italian (Italian ryegrass, Lolium multiflorum); experiment: Test A preemergence, Ryegrass, Italian; settings: Preemergence; for Plant response rating, Ryegrass, Italian: 0 to 100 scale (0 no effect, 100 complete control); for Ryegrass, Italian plant response rating: 125 g ai/ha, visual injury on 0 to 100 scale (0 no effect, 100 complete control), approximately 10 days
Method in brief: as §1

[14] = system: wheat (Triticum aestivum); experiment: Test A postemergence, wheat; settings: Postemergence; for Wheat plant response rating: 500 g ai/ha, visual injury vs untreated controls after approx. 10 days
Method in brief: as §1

[15] = system: Foxtail, Giant (giant foxtail, Setaria faberi); experiment: Test A preemergence, Foxtail, Giant; settings: Preemergence; for Plant response rating, Foxtail, Giant: 0 to 100 scale (0 no effect, 100 complete control); for Foxtail, Giant plant response rating: 125 g ai/ha, visual injury on 0 to 100 scale (0 no effect, 100 complete control), approximately 10 days
Method in brief: as §1

[16] = 31 g ai/ha, visual injury, approx. 10 days
[17] = 31 g ai/ha, visual injury on 0 to 100 scale (0 no effect, 100 complete control), approx. 10 days
[18] = 125 g ai/ha, 0 to 100 scale (0 no effect, 100 complete control)
[19] = 0 to 100 scale (0 no effect, 100 complete control)

SMILES	Plant response rating, Barnyardgrass [1, 16]	Barnyardgrass plant response rating [1]	Plant response rating, Pigweed [2, 17]	Plant response rating, Pigweed [2, 18]	Plant response rating, Corn (corn (Zea mays); [17])	Plant response rating, Corn (corn (Zea mays); [18])	Plant response rating, Ryegrass, Italian [3, 17]	Plant response rating, Ryegrass, Italian [3, 18]	Pigweed plant response rating [4]	Ragweed plant response rating [5]	Plant response rating, Barnyardgrass [6, 18]	Plant response rating, Ragweed [7, 18]	Plant response rating, Galium [8, 18]	Plant response rating, Kochia (kochia (Bassia scoparia) [9]; [18])	Plant response rating, Blackgrass [10, 18]	Plant response rating, Foxtail, Giant [11, 18]	Kochia plant response rating (kochia (Bassia scoparia) [12])	Ryegrass, Italian plant response rating [13]	Plant response rating, Wheat [14, 18]	Foxtail, Giant plant response rating [15]	other results
Cc1cc(C)c(C(=O)N2CCC(C#N)CC2)cc1NS(=O)(=O)C(F)(F)F [Compound 162]	0	60	50	60	20	20	0	30	100	30	80	60	100	10	20	30	40	70	50	90	Plant response rating, Pigweed [4, 16]: 100; Plant response rating, Ragweed [5, 16]: 0; Plant response rating, Barnyardgrass [6, 17]: 40; Plant response rating, Ragweed [7, 17]: 60; Plant response rating, Galium [8, 17]: 80; Plant response rating, Kochia (kochia (Bassia scoparia) [9]; [17]): 10; Plant response rating, Blackgrass [10, 17]: 20; Plant response rating, Foxtail, Giant [11, 17]: 10; Plant response rating, Kochia (kochia (Bassia scoparia) [12]; [16]): 30; Plant response rating, Ryegrass, Italian [13, 16]: 40; Plant response rating, Wheat [14, 17]: 30; Plant response rating, Foxtail, Giant [15, 16]: 100
Cc1cc(C)c(C2=NOC3(CCC(C)(C)CC3)C2)cc1NS(=O)(=O)C(F)(F)F [Compound 163]		90		60		0		0	50	20	0	0	70	10	20	0	0	80	0	50	Plant response rating, Barnyardgrass ([1]; 500 g ai/ha): 100; Pigweed plant response rating [2, 19]: 80; Corn plant response rating (corn (Zea mays); [19]): 60; Ryegrass, Italian plant response rating [3, 19]: 30; Plant response rating, Pigweed ([4]; 500 g ai/ha): 100; Plant response rating, Ragweed ([5]; 500 g ai/ha): 60; Barnyardgrass plant response rating [6, 19]: 80; Ragweed plant response rating [7, 19]: 30; Galium plant response rating [8, 19]: 90; Kochia plant response rating (kochia (Bassia scoparia) [9]; [19]): 60; Blackgrass plant response rating [10, 19]: 30; Foxtail, Giant plant response rating [11, 19]: 10; Plant response rating, Kochia (kochia (Bassia scoparia) [12]; 500 g ai/ha): 80; Plant response rating, Ryegrass, Italian ([13]; 500 g ai/ha): 100; Wheat plant response rating [14, 19]: 0; Plant response rating, Foxtail, Giant ([15]; 500 g ai/ha): 90
Cc1cc(C)c(N(S(=O)(=O)C(F)(F)F)S(=O)(=O)C(F)(F)F)cc1C(=O)N(C)CC1CC1 [Compound 169]		30		40		50		10	60	40	40	60	80	20	0	10	0	50	0	20	Plant response rating, Barnyardgrass ([1]; 500 g ai/ha): 100; Pigweed plant response rating [2, 19]: 50; Corn plant response rating (corn (Zea mays); [19]): 90; Ryegrass, Italian plant response rating [3, 19]: 30; Plant response rating, Pigweed ([4]; 500 g ai/ha): 80; Plant response rating, Ragweed ([5]; 500 g ai/ha): 80; Barnyardgrass plant response rating [6, 19]: 90; Ragweed plant response rating [7, 19]: 90; Galium plant response rating [8, 19]: 90; Kochia plant response rating (kochia (Bassia scoparia) [9]; [19]): 50; Blackgrass plant response rating [10, 19]: 20; Foxtail, Giant plant response rating [11, 19]: 40; Plant response rating, Kochia (kochia (Bassia scoparia) [12]; 500 g ai/ha): 30; Plant response rating, Ryegrass, Italian ([13]; 500 g ai/ha): 100; Wheat plant response rating [14, 19]: 0; Plant response rating, Foxtail, Giant ([15]; 500 g ai/ha): 90
Cc1c(C(=O)N2CCOCC2)cc(N(S(=O)(=O)C(F)(F)F)S(=O)(=O)C(F)(F)F)c(C)c1F [Compound 174]	10	80	70	90	0	20	0	0	100	90	60	90	80	30	0	0	80	60	0	90	Plant response rating, Pigweed [4, 16]: 90; Plant response rating, Ragweed [5, 16]: 30; Plant response rating, Barnyardgrass [6, 17]: 0; Plant response rating, Ragweed [7, 17]: 70; Plant response rating, Galium [8, 17]: 50; Plant response rating, Kochia (kochia (Bassia scoparia) [9]; [17]): 10; Plant response rating, Blackgrass [10, 17]: 0; Plant response rating, Foxtail, Giant [11, 17]: 0; Plant response rating, Kochia (kochia (Bassia scoparia) [12]; [16]): 40; Plant response rating, Ryegrass, Italian [13, 16]: 40; Plant response rating, Wheat [14, 17]: 0; Plant response rating, Foxtail, Giant [15, 16]: 30
